Measured values from PubChem BioAssay (NCI).
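The compound was tested at five concentrations on cells cultured in 96-well plates, with a 48-hour exposure period. The concentration for 50% growth inhibition is given as GI50. At the TGI there is no net growth.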

Columns and labels:
Test in all cases: growth of human tumour cells (NCI), 48 h
786-0 renal = system: 786-0 renal
A498 renal = system: A498 renal
A549 NSCLC = system: A549 NSCLC
ACHN renal = system: ACHN renal
BT-549 breast = system: BT-549 breast
CAKI-1 renal = system: CAKI-1 renal
CCRF-CEM leukemia = system: CCRF-CEM leukemia
COLO 205 colon = system: COLO 205 colon
DU-145 prostate = system: DU-145 prostate
EKVX NSCLC = system: EKVX NSCLC
HCC-2998 colon = system: HCC-2998 colon
HCT-116 colon = system: HCT-116 colon
HCT-15 colon = system: HCT-15 colon
HL-60(TB) leukemia = system: HL-60(TB) leukemia
HOP-62 NSCLC = system: HOP-62 NSCLC
HOP-92 NSCLC = system: HOP-92 NSCLC
HS 578T breast = system: HS 578T breast
HT29 colon = system: HT29 colon
K-562 leukemia = system: K-562 leukemia
KM12 colon = system: KM12 colon
LOX IMVI melanoma = system: LOX IMVI melanoma
M14 melanoma = system: M14 melanoma
MALME-3M melanoma = system: MALME-3M melanoma
MCF7 breast = system: MCF7 breast
MDA-MB-231 breast = system: MDA-MB-231 breast
MDA-MB-435 = system: MDA-MB-435
MOLT-4 leukemia = system: MOLT-4 leukemia
NCI-H226 lung = system: NCI-H226 lung
NCI-H23 lung = system: NCI-H23 lung
NCI-H460 lung = system: NCI-H460 lung
NCI-H522 lung = system: NCI-H522 lung
NCI/ADR-RES ovarian = system: NCI/ADR-RES ovarian
OVCAR-3 ovarian = system: OVCAR-3 ovarian
OVCAR-4 ovarian = system: OVCAR-4 ovarian
OVCAR-5 ovarian = system: OVCAR-5 ovarian
OVCAR-8 ovarian = system: OVCAR-8 ovarian
PC-3 prostate = system: PC-3 prostate
RPMI-8226 leukemia = system: RPMI-8226 leukemia
RXF 393 renal = system: RXF 393 renal
SF-268 CNS = system: SF-268 CNS
SF-295 CNS = system: SF-295 CNS
SF-539 CNS = system: SF-539 CNS
SK-MEL-2 melanoma = system: SK-MEL-2 melanoma
SK-MEL-28 melanoma = system: SK-MEL-28 melanoma
SK-MEL-5 melanoma = system: SK-MEL-5 melanoma
SK-OV-3 ovarian = system: SK-OV-3 ovarian
SN12C renal = system: SN12C renal
SNB-19 CNS = system: SNB-19 CNS
SNB-75 CNS = system: SNB-75 CNS
SR leukemia = system: SR leukemia
SW-620 colon = system: SW-620 colon
T-47D breast = system: T-47D breast
TK-10 renal = system: TK-10 renal
U251 CNS = system: U251 CNS
UACC-257 melanoma = system: UACC-257 melanoma
UACC-62 melanoma = system: UACC-62 melanoma
UO-31 renal = system: UO-31 renal

## COc1ccc(/C=C/C(=O)c2ccc(Nc3nc(Nc4ccc(F)cc4)nc(Nc4ccc(F)cc4)n3)cc2)cc1
786-0 renal
  GI50: 6.03 µM
  TGI: 26.9 µM
A498 renal
  GI50: 11.8 µM
  TGI: 28.2 µM
A549 NSCLC
  GI50: 10.1 µM
  TGI: 34 µM
ACHN renal
  GI50: 30.4 µM
  TGI: > 100 µM
BT-549 breast
  GI50: 14 µM
  TGI: 36.4 µM
CAKI-1 renal
  GI50: 38.3 µM
  TGI: > 100 µM
CCRF-CEM leukemia
  GI50: 5.15 µM
  TGI: 48.2 µM
COLO 205 colon
  GI50: 9.57 µM
  TGI: 29.6 µM
DU-145 prostate
  GI50: 40.2 µM
  TGI: > 100 µM
EKVX NSCLC
  GI50: 23.9 µM
  TGI: > 100 µM
HCC-2998 colon
  GI50: 14.1 µM
  TGI: 53.8 µM
HCT-116 colon
  GI50: 4.82 µM
  TGI: 18.3 µM
HCT-15 colon
  GI50: 14.4 µM
  TGI: > 100 µM
HL-60(TB) leukemia
  GI50: 4.96 µM
  TGI: 30.5 µM
HOP-62 NSCLC
  GI50: 13.1 µM
  TGI: 30 µM
HOP-92 NSCLC
  GI50: 8.8 µM
  TGI: 31.4 µM
HS 578T breast
  GI50: 14.4 µM
  TGI: 59.6 µM
HT29 colon
  GI50: 18.1 µM
  TGI: > 100 µM
K-562 leukemia
  GI50: 4.07 µM
  TGI: > 100 µM
KM12 colon
  GI50: 7.62 µM
  TGI: 29.3 µM
LOX IMVI melanoma
  GI50: 21.7 µM
  TGI: 67.7 µM
M14 melanoma
  GI50: 12.3 µM
  TGI: 36.7 µM
MALME-3M melanoma
  GI50: 8.94 µM
  TGI: 46.6 µM
MCF7 breast
  GI50: 5.59 µM
  TGI: 34.3 µM
MDA-MB-231 breast
  GI50: 35.3 µM
  TGI: > 100 µM
MDA-MB-435
  GI50: 5.8 µM
  TGI: 31.6 µM
MOLT-4 leukemia
  GI50: 3.11 µM
  TGI: 21.9 µM
NCI-H226 lung
  GI50: 19.8 µM
  TGI: 65.7 µM
NCI-H23 lung
  GI50: 14.4 µM
  TGI: 32.5 µM
NCI-H460 lung
  GI50: 13 µM
  TGI: 72.4 µM
NCI-H522 lung
  GI50: 8.89 µM
  TGI: 24.9 µM
NCI/ADR-RES ovarian
  GI50: 5.63 µM
  TGI: 33 µM
OVCAR-3 ovarian
  GI50: 26.7 µM
  TGI: > 100 µM
OVCAR-4 ovarian
  GI50: 27.4 µM
  TGI: > 100 µM
OVCAR-5 ovarian
  GI50: 40.2 µM
  TGI: > 100 µM
OVCAR-8 ovarian
  GI50: 8.49 µM
  TGI: 30.1 µM
PC-3 prostate
  GI50: 5.06 µM
  TGI: 21.4 µM
RPMI-8226 leukemia
  GI50: 6.66 µM
  TGI: > 100 µM
RXF 393 renal
  GI50: 3.09 µM
  TGI: 14.2 µM
SF-268 CNS
  GI50: 22.5 µM
  TGI: 94.6 µM
SF-295 CNS
  GI50: 14.2 µM
  TGI: 42.7 µM
SF-539 CNS
  GI50: 23.2 µM
  TGI: 60.1 µM
SK-MEL-2 melanoma
  GI50: 14.1 µM
  TGI: 34.6 µM
SK-MEL-28 melanoma
  GI50: 56.8 µM
  TGI: > 100 µM
SK-MEL-5 melanoma
  GI50: 3.51 µM
  TGI: 18.5 µM
SK-OV-3 ovarian
  GI50: 17.1 µM
  TGI: 88.4 µM
SN12C renal
  GI50: 55.1 µM
  TGI: > 100 µM
SNB-19 CNS
  GI50: 30.9 µM
  TGI: > 100 µM
SNB-75 CNS
  GI50: 30.6 µM
  TGI: > 100 µM
SR leukemia
  GI50: 4.66 µM
  TGI: 51.6 µM
SW-620 colon
  GI50: 19 µM
  TGI: 82.1 µM
T-47D breast
  GI50: 5.42 µM
  TGI: 52.5 µM
TK-10 renal
  GI50: 11.8 µM
  TGI: 42.7 µM
U251 CNS
  GI50: 16.7 µM
  TGI: 56.2 µM
UACC-257 melanoma
  GI50: 19 µM
  TGI: 76.4 µM
UACC-62 melanoma
  GI50: 29.9 µM
  TGI: > 100 µM
UO-31 renal
  GI50: 10.2 µM
  TGI: 31.9 µM
